Molecular target: T1, human TLR7 (Homo sapiens, UniProt Q9NYK1)
T1 construct: host or cells: HEK-Blue TLR7 cells (engineered human embryonic kidney cells)
T1 sequence (Q9NYK1 27-1049): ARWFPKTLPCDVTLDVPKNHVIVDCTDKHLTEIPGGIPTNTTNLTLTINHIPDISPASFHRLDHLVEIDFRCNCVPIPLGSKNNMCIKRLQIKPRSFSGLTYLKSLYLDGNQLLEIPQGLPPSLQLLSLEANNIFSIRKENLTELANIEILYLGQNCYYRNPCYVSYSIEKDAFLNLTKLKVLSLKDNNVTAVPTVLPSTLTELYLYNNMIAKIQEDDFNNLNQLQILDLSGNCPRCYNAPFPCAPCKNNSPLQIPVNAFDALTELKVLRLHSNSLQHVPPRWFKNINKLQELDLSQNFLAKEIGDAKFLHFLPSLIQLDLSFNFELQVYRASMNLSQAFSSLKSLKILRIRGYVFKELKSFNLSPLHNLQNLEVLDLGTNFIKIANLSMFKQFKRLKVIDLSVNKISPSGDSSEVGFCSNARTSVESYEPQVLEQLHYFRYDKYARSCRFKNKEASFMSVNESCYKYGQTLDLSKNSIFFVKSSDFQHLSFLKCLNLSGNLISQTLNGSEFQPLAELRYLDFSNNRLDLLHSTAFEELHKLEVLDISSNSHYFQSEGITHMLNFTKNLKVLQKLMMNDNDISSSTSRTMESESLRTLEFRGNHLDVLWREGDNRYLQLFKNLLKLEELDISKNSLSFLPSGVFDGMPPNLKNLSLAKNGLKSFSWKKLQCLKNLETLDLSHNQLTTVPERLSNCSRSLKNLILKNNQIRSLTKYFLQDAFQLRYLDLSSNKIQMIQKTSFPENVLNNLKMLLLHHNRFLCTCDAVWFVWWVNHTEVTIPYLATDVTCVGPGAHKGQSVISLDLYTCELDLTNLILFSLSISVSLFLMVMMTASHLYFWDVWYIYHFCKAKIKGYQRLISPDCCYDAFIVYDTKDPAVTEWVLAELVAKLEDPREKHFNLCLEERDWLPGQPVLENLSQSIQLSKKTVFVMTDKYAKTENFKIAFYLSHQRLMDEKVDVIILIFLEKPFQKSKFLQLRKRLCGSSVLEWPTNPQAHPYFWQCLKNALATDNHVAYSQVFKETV
Test: HEK-Blue TLR7 reporter assay (human TLR7 agonist activity, SEAP reporter)
Type: cell-based
Settings: Table A, formula IIa compounds; HEK-Blue TLR7 cells, 18 h treatment, SEAP read-out
Protocol: This procedure describes a method for assaying human TLR7 (hTLR7) agonist activity of the compounds disclosed in this specification.
HEK-Blue™ TLR7 cells were added to each well of a 384-well tissue-culture plate (15,000 cells per well) and incubated 16-18 h at 37° C., 5% CO2. […] After 18 h treatment ten microliters of freshly-prepared Quanti-Blue™ reagent (Invivogen) was added to each well, incubated for 30 min (37° C., 5% CO2) and SEAP levels measured using an Envision plate reader (OD=620 nm).

Question: Which EC50 does the source give for `CCCCNc1nc(N)nc2cn(Cc3ccc(CN(C)CCCO)cc3OC)nc12` [IIa-26] here?
Answer: 194 nM

Question: Which EC50 does the source give for `CCCCNc1nc(N)nc2cn(Cc3ccc(CNCCO)cc3OC)nc12` [IIa-03] here?
Answer: 1000 nM

Question: With `CCCCNc1nc(N)nc2cn(Cc3ccc(CN4CCN(CCO)CC4)cc3OC)nc12` [IIa-17] as the molecule, how does the EC50 read?
Answer: 180 nM

Question: With `CCCCNc1nc(N)nc2cn(Cc3ccc(CNC(C)(C)C)cc3OC)nc12` [IIa-34] as the molecule, how does the EC50 read?
Answer: 550 nM

Question: With `CCCCNc1nc(N)nc2cn(Cc3ccc(CNC4COC4)cc3OC)nc12` [IIa-15] as the molecule, how does the EC50 read?
Answer: 300 nM

Question: With `CCCCNc1nc(N)nc2cn(Cc3ccc(CN4CCNCC4)cc3OC)nc12` [IIa-02] as the molecule, how does the EC50 read?
Answer: 510 nM

Question: For `CCCCNc1nc(N)nc2cn(Cc3ccc(CNCc4ccc(N)cc4)cc3OC)nc12` [IIa-10], which EC50 is on record?
Answer: 270 nM

Question: `CCCCNc1nc(N)nc2cn(Cc3ccc(CO)cc3OC)nc12` [IIa-14] was tested. Which EC50 did it give?
Answer: 550 nM

Question: Which EC50 does the source give for `CCCCNc1nc(N)nc2cn(Cc3ccc(CN4CCN(C)CC4)cc3OC)nc12` [IIa-36] here?
Answer: 520 nM

Question: How did the EC50 turn out when `CCCCNc1nc(N)nc2cn(Cc3ccc(CNC4CC(O)C4)cc3OC)nc12` (stereo not shown) [IIa-09] was run?
Answer: 420 nM

Question: With `CCCCNc1nc(N)nc2cn(Cc3ccc(CNCCOC)cc3OC)nc12` [IIa-22] as the molecule, how does the EC50 read?
Answer: 200 nM

Question: How did the EC50 turn out when `CCCCNc1nc(N)nc2cn(Cc3ccc(CN4CCCCC4)cc3OC)nc12` [IIa-31] was run?
Answer: 410 nM

Question: How did the EC50 turn out when `CCCCNc1nc(N)nc2cn(Cc3ccc(CNCCCN)cc3OC)nc12` [IIa-04] was run?
Answer: 1600 nM

Question: With `CCCCNc1nc(N)nc2cn(Cc3ccc(CNCC(C)(C)O)cc3OC)nc12` [IIa-20] as the molecule, how does the EC50 read?
Answer: 280 nM

Question: `CCCCNc1nc(N)nc2cn(Cc3ccc(CNCCS(C)(=O)=O)cc3OC)nc12` [IIa-11] was tested. Which EC50 did it give?
Answer: 540 nM

Question: `CCCCNc1nc(N)nc2cn(Cc3ccc(CNCC4COC4)cc3OC)nc12` [IIa-07] was tested. Which EC50 did it give?
Answer: 610 nM

Question: With `CCCCNc1nc(N)nc2cn(Cc3ccc(CN4CCOCC4)cc3OC)nc12` [IIa-30] as the molecule, how does the EC50 read?
Answer: 580 nM

Question: Which EC50 does the source give for `CCCCNc1nc(N)nc2cn(Cc3ccc(CN4CCCNCC4)cc3OC)nc12` [IIa-29] here?
Answer: 760 nM

Question: With `CCCCNc1nc(N)nc2cn(Cc3ccc(CN4CC(CCO)C4)cc3OC)nc12` [IIa-23] as the molecule, how does the EC50 read?
Answer: 303 nM

Question: For `CCCCNc1nc(N)nc2cn(Cc3ccc(Cn4ccnc4)cc3OC)nc12` [IIa-21], which EC50 is on record?
Answer: 190 nM

Question: Which EC50 does the source give for `CCCCNc1nc(N)nc2cn(Cc3ccc(CNCc4ccncc4)cc3OC)nc12` [IIa-05] here?
Answer: 450 nM

Question: Which EC50 does the source give for `CCCCNc1nc(N)nc2cn(Cc3ccc(CNC4(CO)CCCC4)cc3OC)nc12` [IIa-28] here?
Answer: 430 nM

Question: For `CCCCNc1nc(N)nc2cn(Cc3ccc(CN4CCCC4)cc3OC)nc12` [IIa-32], which EC50 is on record?
Answer: 600 nM

Question: With `CCCCNc1nc(N)nc2cn(Cc3ccc(CN4CC5CC4CN5)cc3OC)nc12` (stereo not shown) [IIa-27] as the molecule, how does the EC50 read?
Answer: 710 nM

Question: How did the EC50 turn out when `CCCCNc1nc(N)nc2cn(Cc3ccc(CNCC4CC(O)C4)cc3OC)nc12` (stereo not shown) [IIa-24] was run?
Answer: 130 nM

Question: For `CCC[C@@H](CCO)Nc1nc(N)nc2cn(Cc3ccc(CO)cc3OC)nc12` [IIa-35], which EC50 is on record?
Answer: 2100 nM

Question: How did the EC50 turn out when `CCCCNc1nc(N)nc2cn(Cc3ccc(CNC4CCC4)cc3OC)nc12` [IIa-01] was run?
Answer: 340 nM

Question: `CCCCNCc1ccc(Cn2cc3nc(N)nc(NCCCC)c3n2)c(OC)c1` [IIa-33] was tested. Which EC50 did it give?
Answer: 810 nM

Question: `CCCCNc1nc(N)nc2cn(Cc3ccc(CNC4CCOCC4)cc3OC)nc12` [IIa-19] was tested. Which EC50 did it give?
Answer: 320 nM

Question: Which EC50 does the source give for `CCCCNc1nc(N)nc2cn(Cc3ccc(CNc4ccc(CCO)cc4)cc3OC)nc12` [IIa-25] here?
Answer: 880 nM

Question: `CCCCNc1nc(N)nc2cn(Cc3ccc(CNC4CCC(O)CC4)cc3OC)nc12` (stereo not shown) [IIa-08] was tested. Which EC50 did it give?
Answer: 650 nM

Same assay, conditions: Table B, formula IIb compounds; HEK-Blue TLR7 cells, 18 h treatment, SEAP read-out

Question: With `CCCCNc1nc(N)nc2cn(Cc3ccc(Oc4ccc(CNCCO)cc4)cc3OC)nc12` [IIb-02] as the molecule, how does the EC50 read?
Answer: 1600 nM

Question: `CCCCNc1nc(N)nc2cn(Cc3ccc(Oc4ccc(CNCCO)cc4)nc3)nc12` [IIb-04] was tested. Which EC50 did it give?
Answer: 2100 nM

Question: `CCCCNc1nc(N)nc2cn(Cc3ccc(Oc4ccc(CO)cc4)nc3)nc12` [IIb-01] was tested. Which EC50 did it give?
Answer: 820 nM
